Source: patent publication US5625046A, “Hydroxyl projecting groups for organic synthesis” (King's College London, priority 1986, dated 1997)

Tests used:
[1] = removal of 2'-protecting groups by acidic hydrolysis at 25° C. (HPLC); format: physicochemical; details: for t0.99 (calculated time for 99% removal of the 2'-protecting group) / t1/2 (half-time): 25° C.; for t1/2 (half-time): hydrochloric acid or 0.2M glycine hydrochloride buffer; for rate of hydrolysis, times faster at pH 1.0 than at pH 3.0: pH 1.0 vs pH 3.0
Procedure: The removal of 2'-protecting groups by acidic hydrolysis at 25° C. was then investigated. Substrates as indicated below (ca 0.5-1.0 mg) were dissolved in 3.0 ml of hydrochloric acid or 0.2M glycine hydrochloride buffer at the specified pH. Aliquots (0.2 ml) of the reaction solutions were removed after suitable intervals of time, neutralized with triethylammonium bicarbonate and analyzed by HPLC (Jones "APEX ODS" column).
(b) t0.99 =calculated time for 99% removal of the 2'-protecting group.

[2] = concomitant removal of 2'-O-Ctmp group during removal of 5'-O-(9-phenylxanthen-9-yl) group (trifluoroacetic acid/pyrrole in dichloromethane); format: physicochemical; details: in the time required for complete removal of the 5'-O-(9-phenylxanthen-9-yl) group, 5.5 mol. equiv. trifluoroacetic acid, 16.5 mol. equiv. pyrrole, room temperature
Procedure: Following the above scheme, the latter compound was then converted by the conventional two-step procedure into the fully-protected dinucleoside phosphate in ca 83% overall yield. When a 0.025M solution of the fully-protected dinucleoside phosphate in dichloromethane was treated with 5.5 mol. equiv. of trifluoroacetic acid and 16.5 mol. equiv. of pyrrole for 30 seconds at room temperature, no starting material remained and the partially-protected dinucleoside phosphate was isolated from the products In 95.5% yield. When the acid treatment of the fully-protected dinucleoside phosphate was extended to 30 minutes under the same conditions, the partially-protected dinucleoside phosphate was isolated in 85% yield. From such results, it may be estimated that less than 0.2% concomitant removal of the 2'-O-Ctmp group occurs in the time required for the complete removal of the 5'-O-(9-phenylxanthen-9-yl) protecting group.

SMILES | rate of hydrolysis, dependence on pH ([1]; between pH 0.5 and 1.5) | t0.99 (calculated time for 99% removal of the 2'-protecting group) ([1]; pH 0.5) [min] | t1/2 (half-time) ([1]; pH 0.5) [min] | t0.99 (calculated time for 99% removal of the 2'-protecting group) ([1]; pH 1.0) [min] | t1/2 (half-time) ([1]; pH 1.0) [min] | rate of hydrolysis, times faster at pH 1.0 than at pH 3.0 [1] [times] | t0.99 (calculated time for 99% removal of the 2'-protecting group) ([1]; pH 1.5) [min] | t1/2 (half-time) ([1]; pH 1.5) [min] | t0.99 (calculated time for 99% removal of the 2'-protecting group) ([1]; pH 2.0) [min] | t1/2 (half-time) ([1]; pH 2.0) [min] | t0.99 (calculated time for 99% removal of the 2'-protecting group) ([1]; pH 2.5) [min] | t1/2 (half-time) ([1]; pH 2.5) [min] | t0.99 (calculated time for 99% removal of the 2'-protecting group) ([1]; pH 3.0) [min] | t1/2 (half-time) ([1]; pH 3.0) [min] | t0.99 (calculated time for 99% removal of the 2'-protecting group) ([1]; pH 3.5) [min] | t1/2 (half-time) ([1]; pH 3.5) [min] | effect of vicinal phosphotriester group on acid-catalyzed hydrolysis of Ctmp (in words) [1] | concomitant removal of the 2'-O-Ctmp group [2] | rate of hydrolysis, dependence on pH (in words) ([1]; with decreasing pH) | stability of protecting group for the desired purposes (in words) [1]
COC1(O[C@@H]2[C@H](O)[C@@H](CO)O[C@H]2n2ccc(=O)[nH]c2=O)CCN(c2ccc(C)cc2Cl)CC1 | virtually unchanged | 223 | 33.5 | 236 | 35.5 | ~2.25 | 233 | 35 | 272 | 41 | 345 | 52 | 532 | 80 | 1120 | 168 |  |  |  | 
COC1(O[C@@H]2[C@H](OP(=O)(O)OC[C@H]3O[C@@H](n4ccc(=O)[nH]c4=O)[C@H](O)[C@@H]3O)[C@@H](CO)O[C@H]2n2ccc(=O)[nH]c2=O)CCN(c2ccc(C)cc2Cl)CC1 |  |  |  |  |  |  |  |  | 143 | 21.5 | 156 | 23.5 |  |  |  |  | facilitates the acid-catalyzed hydrolysis |  |  | 
COC1(O[C@@H]2[C@H](OP(=O)(OC[C@H]3O[C@@H](n4ccc(=O)[nH]c4=O)[C@H](OC(C)=O)[C@@H]3OC(C)=O)Oc3ccccc3Cl)[C@@H](COC3(c4ccccc4)c4ccccc4Oc4ccccc43)O[C@H]2n2ccc(=O)[nH]c2=O)CCN(c2ccc(C)cc2Cl)CC1 (some centres unmarked) [fully-protected dinucleoside phosphate] |  |  |  |  |  |  |  |  |  |  |  |  |  |  |  |  |  | less than 0.2% |  | 
COC1(O[C@@H]2[C@H](O)[C@@H](CO)O[C@H]2n2ccc(=O)[nH]c2=O)CCOCC1 [reference compound] |  |  |  | 6 | 0.9 | 140 |  |  | 136 | 20.5 |  |  | 837 | 126 |  |  |  |  | increases sharply with decreasing pH | 
COC1(O[C@@H]2[C@H](O)[C@@H](CO)O[C@H]2n2ccc(=O)[nH]c2=O)CCN(c2ccccc2)CC1 [reference compound] |  |  |  | 3300 | 498 |  |  |  | 4380 | 660 |  |  |  |  |  |  |  |  |  | too stable
